Article PMC5218480 (PLoS ONE, 2017)

Experiments:
[1] = molecular target: T1, HDAC4 (Homo sapiens, UniProt P56524); assay: HDAC enzyme assay, in vitro biochemical; conditions: maximum concentration tested of 20 μM
T1 construct: purchased BPS Biosciences
Experimental: (§1) In vitro biochemical assays were performed as described previously. Specifically, compounds were dissolved and diluted in assay buffer (50 mM HEPES, pH 7.4, 100 mM KCl, 0.001% Tween-20, 0.05% BSA, and 20 μM Tris (2-carboxyethyl) phosphine) to 6-fold the final concentration. […] The amount of substrate (acetyl-lysine tripeptide) used for each enzyme was equal to the Michaelis constant (Km), as determined by a titration curve. Substrate was diluted in assay buffer to 6-fold of the final concentration with 0.3 μM sequencing grade trypsin (Sigma-Aldrich). The substrate/trypsin mix was added to the enzyme/compound mix and the plate was shaken for 5 seconds and then placed into a SpectraMax M5 microtiter (Molecular Devices) plate reader. The enzymatic reaction was monitored over 30 minutes for release of […] after deacetylation of the lysine side chain in the peptide substrate, and the linear rate of the reaction was calculated.
(§2) biochemical assay for HDAC4, HDAC5, HDAC6, HDAC7, HDAC8, HDAC9 inhibition by ACY-1035.
(§3) (1 picture or pasted object on this page, not shown here)

[2] = molecular target: T2, HDAC5 (Homo sapiens, UniProt Q9UQL6); assay: HDAC enzyme assay, in vitro biochemical; conditions: maximum concentration tested of 20 μM
T2 construct: purchased BPS Biosciences
Experimental: as §1, §2, §3

[3] = molecular target: T3, HDAC6 (Homo sapiens, UniProt Q9UBN7); assay: HDAC enzyme assay, in vitro biochemical; conditions: maximum concentration tested of 20 μM
T3 construct: purchased BPS Biosciences
T3 sequence (Q9UBN7 1-1215): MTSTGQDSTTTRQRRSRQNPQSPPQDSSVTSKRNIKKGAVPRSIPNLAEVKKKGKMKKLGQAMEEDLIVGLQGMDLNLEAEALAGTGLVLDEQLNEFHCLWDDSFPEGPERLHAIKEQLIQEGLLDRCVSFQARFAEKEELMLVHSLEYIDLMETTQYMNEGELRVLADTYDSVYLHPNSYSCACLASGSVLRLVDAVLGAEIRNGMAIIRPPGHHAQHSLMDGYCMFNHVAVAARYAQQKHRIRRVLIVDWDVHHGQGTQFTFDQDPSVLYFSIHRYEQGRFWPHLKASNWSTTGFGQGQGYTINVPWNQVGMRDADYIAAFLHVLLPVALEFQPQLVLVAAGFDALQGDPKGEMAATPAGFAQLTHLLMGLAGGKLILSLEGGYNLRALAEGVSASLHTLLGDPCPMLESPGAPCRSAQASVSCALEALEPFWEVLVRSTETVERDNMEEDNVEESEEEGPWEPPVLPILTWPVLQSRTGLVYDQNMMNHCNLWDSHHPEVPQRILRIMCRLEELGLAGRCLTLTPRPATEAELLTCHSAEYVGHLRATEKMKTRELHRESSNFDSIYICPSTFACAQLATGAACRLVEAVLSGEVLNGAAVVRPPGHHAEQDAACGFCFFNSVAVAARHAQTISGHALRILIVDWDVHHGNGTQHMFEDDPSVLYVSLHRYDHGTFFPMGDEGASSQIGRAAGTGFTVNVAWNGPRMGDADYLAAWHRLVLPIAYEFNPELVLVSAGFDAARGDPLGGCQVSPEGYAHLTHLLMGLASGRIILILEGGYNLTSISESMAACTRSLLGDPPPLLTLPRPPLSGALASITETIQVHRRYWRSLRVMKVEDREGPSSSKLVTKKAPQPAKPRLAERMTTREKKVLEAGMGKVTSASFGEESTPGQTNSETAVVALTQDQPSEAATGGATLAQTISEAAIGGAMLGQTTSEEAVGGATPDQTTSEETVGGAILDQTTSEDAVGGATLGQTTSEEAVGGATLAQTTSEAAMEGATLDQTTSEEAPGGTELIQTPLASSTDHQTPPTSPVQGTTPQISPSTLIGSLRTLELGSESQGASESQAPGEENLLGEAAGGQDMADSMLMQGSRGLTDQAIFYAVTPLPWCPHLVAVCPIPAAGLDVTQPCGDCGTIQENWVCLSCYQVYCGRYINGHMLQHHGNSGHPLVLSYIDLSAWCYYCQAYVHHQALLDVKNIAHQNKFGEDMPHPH
Experimental: as §1, §2, §3

[4] = molecular target: T4, HDAC8 (Homo sapiens, UniProt Q9BY41); assay: HDAC enzyme assay, in vitro biochemical; conditions: maximum concentration tested of 20 μM
T4 construct: purchased BPS Biosciences
T4 sequence (Q9BY41 1-377): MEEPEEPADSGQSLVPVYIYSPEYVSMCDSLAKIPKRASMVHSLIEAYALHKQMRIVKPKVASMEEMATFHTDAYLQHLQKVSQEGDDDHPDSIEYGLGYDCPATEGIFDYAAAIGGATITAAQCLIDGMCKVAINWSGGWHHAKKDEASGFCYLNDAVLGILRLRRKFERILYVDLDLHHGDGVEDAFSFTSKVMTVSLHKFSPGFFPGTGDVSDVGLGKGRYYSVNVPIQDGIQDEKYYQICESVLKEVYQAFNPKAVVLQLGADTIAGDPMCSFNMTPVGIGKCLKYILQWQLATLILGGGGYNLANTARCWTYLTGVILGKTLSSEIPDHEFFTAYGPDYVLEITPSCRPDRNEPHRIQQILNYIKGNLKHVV
Experimental: as §1, §2, §3

[5] = tested on: NB-4 cells; assay: Cell viability assay (CellTiter-Glo); conditions: read-out: IC50 cell viability NB-4; 72 hours
Experimental: (§5) MV-4-11, Kasumi-1, and HL-60 AML cell lines were all obtained from ATCC. MOLM-13 and NB-4 cell lines were obtained from DSMZ. […] The identity of each cell line was validated and documented by the suppliers. All experiments were performed with cells maintained at low passage numbers.
Compounds and/or solvent dimethyl sulfoxide (DMSO) were added at the same time using an HP D300 digital dispenser (Hewlett Packard) in triplicate or quadruplicate and incubated for 72 hours at 37°C. Viability was measured by adding 25 μL CellTiter-Glo (Promega), incubating for 10 minutes, and measuring luminescence on a SpectraMax (Molecular Devices).

[6] = tested on: MV-4-11 cells; assay: Cell viability assay (CellTiter-Glo), single agent and combination; conditions: read-out: IC50 cell viability MV-4-11; 72 hours
Experimental: as §5
Compounds and/or solvent dimethyl sulfoxide (DMSO) were added at the same time using an HP D300 digital dispenser (Hewlett Packard) in triplicate or quadruplicate and incubated for 72 hours at 37°C. Viability was measured by adding 25 μL CellTiter-Glo (Promega), incubating for 10 minutes, and measuring luminescence on a SpectraMax (Molecular Devices). […] CI < 1 indicates synergism, CI = 1 indicates additivity, and CI > 1 indicates antagonism.

[7] = tested on: MV-4-11 and HL-60 cells; assay: Flow cytometry, cell cycle (EdU, S phase); assay type: cell-based, human; conditions: single agent, 72 hours
Experimental: (§4) All compounds and/or solvent DMSO were added concurrently at the indicated doses. Flow cytometry was performed to measure surface level of CD11b, cell cycle distribution, and induction of apoptosis. CD11b and apoptosis were analyzed on a FC500 flow cytometer ([…]) and cell cycle profiled on an Attune NxT (Life Technologies).
EdU labeled cells were then mixed with FxCycle Far Red Stain (Life Technologies) and 100 μg RNase A cocktail (Life technologies) for 30 minutes before flow cytometry analysis. Edu positive populations representing S phase cells were quantified.

[8] = tested on: MV-4-11 and HL-60 cells; assay: Flow cytometry, surface level of CD11b (differentiation); assay type: cell-based, human; conditions: single agent, 72 hours
Experimental: as §4
The frequency of CD11b positive cells out of total viable cells identified by forward and side scatter profile was quantified.

T1 sequence (P56524 whole entry): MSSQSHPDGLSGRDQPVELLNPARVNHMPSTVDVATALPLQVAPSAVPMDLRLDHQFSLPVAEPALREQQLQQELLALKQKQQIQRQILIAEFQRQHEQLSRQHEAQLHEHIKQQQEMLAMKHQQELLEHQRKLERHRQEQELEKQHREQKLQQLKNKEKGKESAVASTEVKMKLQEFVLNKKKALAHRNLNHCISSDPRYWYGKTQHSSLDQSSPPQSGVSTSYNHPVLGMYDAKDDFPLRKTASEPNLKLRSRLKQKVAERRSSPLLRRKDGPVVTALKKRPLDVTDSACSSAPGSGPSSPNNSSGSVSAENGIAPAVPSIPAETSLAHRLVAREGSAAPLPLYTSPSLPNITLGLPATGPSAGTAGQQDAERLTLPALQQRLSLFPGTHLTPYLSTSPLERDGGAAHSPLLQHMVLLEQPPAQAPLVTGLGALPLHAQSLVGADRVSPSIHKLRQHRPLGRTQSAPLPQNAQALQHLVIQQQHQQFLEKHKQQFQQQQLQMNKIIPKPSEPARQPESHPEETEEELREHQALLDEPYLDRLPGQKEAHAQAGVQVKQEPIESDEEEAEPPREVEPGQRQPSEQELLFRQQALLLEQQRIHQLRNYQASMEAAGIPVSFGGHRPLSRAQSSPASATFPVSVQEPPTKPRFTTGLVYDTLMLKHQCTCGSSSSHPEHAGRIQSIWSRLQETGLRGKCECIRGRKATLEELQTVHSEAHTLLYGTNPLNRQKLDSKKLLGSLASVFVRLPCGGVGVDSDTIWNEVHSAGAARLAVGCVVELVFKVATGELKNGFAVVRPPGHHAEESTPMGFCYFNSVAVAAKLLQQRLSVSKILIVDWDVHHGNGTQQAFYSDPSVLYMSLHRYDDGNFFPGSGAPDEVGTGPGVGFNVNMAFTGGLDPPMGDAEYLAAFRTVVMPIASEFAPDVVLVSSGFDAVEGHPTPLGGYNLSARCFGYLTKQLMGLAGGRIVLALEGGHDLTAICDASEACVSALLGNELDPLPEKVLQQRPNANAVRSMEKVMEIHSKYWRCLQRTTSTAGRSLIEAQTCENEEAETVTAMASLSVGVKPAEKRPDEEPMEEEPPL
T2 sequence (Q9UQL6 whole entry): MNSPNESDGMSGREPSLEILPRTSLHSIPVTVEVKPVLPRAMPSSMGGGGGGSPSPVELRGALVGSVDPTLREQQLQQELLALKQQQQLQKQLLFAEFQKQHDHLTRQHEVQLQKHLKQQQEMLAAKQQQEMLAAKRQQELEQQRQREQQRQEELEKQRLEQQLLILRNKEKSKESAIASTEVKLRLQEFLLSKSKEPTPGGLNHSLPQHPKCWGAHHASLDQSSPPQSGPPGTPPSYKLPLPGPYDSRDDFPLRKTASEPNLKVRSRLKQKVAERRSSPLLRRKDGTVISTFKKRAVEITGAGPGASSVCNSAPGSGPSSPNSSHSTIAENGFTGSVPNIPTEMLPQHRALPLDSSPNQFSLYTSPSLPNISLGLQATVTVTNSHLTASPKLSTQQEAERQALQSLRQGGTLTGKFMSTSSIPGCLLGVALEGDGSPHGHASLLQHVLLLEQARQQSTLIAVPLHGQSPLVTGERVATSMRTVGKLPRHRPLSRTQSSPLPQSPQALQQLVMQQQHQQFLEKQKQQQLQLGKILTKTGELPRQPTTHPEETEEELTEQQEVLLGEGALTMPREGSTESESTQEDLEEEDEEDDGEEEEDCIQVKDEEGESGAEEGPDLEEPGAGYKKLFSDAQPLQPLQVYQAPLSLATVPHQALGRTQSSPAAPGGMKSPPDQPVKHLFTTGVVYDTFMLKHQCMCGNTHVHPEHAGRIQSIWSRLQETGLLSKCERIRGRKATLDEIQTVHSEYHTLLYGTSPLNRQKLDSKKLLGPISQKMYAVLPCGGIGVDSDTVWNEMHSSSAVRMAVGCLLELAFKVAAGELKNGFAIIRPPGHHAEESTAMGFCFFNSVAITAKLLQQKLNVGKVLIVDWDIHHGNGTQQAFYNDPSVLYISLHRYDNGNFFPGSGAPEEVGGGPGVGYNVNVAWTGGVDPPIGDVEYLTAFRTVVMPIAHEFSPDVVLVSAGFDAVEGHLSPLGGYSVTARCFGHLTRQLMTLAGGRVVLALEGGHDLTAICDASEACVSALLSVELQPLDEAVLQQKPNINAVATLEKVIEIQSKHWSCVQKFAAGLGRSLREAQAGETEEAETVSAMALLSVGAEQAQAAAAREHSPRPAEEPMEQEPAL

Nc1ccc(-c2cccs2)cc1NC(=O)c1ccc2c(c1)cc(C1CC1)n2CCN1CCOCC1 [ACY-1035]
inhibition of HDAC4 [1]: did not inhibit
inhibition of HDAC5 [2]: did not inhibit
inhibition of HDAC6 [3]: did not inhibit
inhibition of HDAC8 [4]: did not inhibit
IC50 [5]: 2800 nM
IC50 [6]: 1400 nM
cells in S phase [7]: dose-dependent reduction of cells in S phase
differentiation, surface expression of CD11b [8]: dose-dependent induction of differentiation
